Values of other authors, collected in US11865125B2, “APKC inhibitors and methods of treating a neurodegenerative disease or disorder” (UNIVERSITY OF SOUTH FLORIDA, priority 2016, dated 2024).

Biological target: T1, aPKC (Mus musculus, UniProt Q62074)
T1 construct: previously seen in isolated human hepatocytes, mouse adipocytes and recombinant PKC-λ/ι [8,16]; endogenous in cells; host or cells: isolated mouse adipocytes
T1 sequence (Q62074 2-595 limits assumed): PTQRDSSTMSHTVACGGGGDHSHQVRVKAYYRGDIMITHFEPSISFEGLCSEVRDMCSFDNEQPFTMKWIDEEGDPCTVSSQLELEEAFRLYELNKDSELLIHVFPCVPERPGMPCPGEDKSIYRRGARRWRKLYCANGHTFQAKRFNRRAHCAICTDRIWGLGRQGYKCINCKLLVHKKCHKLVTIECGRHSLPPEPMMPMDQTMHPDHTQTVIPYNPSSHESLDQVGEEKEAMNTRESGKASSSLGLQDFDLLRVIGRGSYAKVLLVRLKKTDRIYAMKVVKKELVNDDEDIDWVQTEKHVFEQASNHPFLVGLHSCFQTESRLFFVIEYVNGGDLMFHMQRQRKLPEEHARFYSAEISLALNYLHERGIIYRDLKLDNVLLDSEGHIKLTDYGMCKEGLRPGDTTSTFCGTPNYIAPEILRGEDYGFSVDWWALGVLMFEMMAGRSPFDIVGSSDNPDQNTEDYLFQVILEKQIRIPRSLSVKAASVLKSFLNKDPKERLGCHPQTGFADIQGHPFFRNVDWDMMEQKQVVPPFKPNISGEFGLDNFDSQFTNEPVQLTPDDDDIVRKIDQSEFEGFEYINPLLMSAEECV
Conditions: previously seen, stated as similar; read-out: IC50, inhibition of aPKC activity in mouse adipocytes; cited from earlier work

## NC(=O)c1ncn([C@@H]2C[C@H](COP(=O)(O)O)[C@@H](O)[C@H]2O)c1N [ICAPP]
  IC50: 1 to 10 nM
